Assay results reported in ChEMBL document CHEMBL1133972, “Solid-Phase synthesis of a library constructed of aromatic phosphate, long alkyl chains and tryptophane components, and identification of potent dipeptide telomerase inhibitors” (Bioorg Med Chem Lett, 2001).

What follows are molecules tested against Telomerase reverse transcriptase (Homo sapiens, UniProt O14746) (assay: Inhibitory activity against telomerase extracted from HCT 116 cell lines).
Type: cell-free

Sequence of Telomerase reverse transcriptase (O14746 whole entry): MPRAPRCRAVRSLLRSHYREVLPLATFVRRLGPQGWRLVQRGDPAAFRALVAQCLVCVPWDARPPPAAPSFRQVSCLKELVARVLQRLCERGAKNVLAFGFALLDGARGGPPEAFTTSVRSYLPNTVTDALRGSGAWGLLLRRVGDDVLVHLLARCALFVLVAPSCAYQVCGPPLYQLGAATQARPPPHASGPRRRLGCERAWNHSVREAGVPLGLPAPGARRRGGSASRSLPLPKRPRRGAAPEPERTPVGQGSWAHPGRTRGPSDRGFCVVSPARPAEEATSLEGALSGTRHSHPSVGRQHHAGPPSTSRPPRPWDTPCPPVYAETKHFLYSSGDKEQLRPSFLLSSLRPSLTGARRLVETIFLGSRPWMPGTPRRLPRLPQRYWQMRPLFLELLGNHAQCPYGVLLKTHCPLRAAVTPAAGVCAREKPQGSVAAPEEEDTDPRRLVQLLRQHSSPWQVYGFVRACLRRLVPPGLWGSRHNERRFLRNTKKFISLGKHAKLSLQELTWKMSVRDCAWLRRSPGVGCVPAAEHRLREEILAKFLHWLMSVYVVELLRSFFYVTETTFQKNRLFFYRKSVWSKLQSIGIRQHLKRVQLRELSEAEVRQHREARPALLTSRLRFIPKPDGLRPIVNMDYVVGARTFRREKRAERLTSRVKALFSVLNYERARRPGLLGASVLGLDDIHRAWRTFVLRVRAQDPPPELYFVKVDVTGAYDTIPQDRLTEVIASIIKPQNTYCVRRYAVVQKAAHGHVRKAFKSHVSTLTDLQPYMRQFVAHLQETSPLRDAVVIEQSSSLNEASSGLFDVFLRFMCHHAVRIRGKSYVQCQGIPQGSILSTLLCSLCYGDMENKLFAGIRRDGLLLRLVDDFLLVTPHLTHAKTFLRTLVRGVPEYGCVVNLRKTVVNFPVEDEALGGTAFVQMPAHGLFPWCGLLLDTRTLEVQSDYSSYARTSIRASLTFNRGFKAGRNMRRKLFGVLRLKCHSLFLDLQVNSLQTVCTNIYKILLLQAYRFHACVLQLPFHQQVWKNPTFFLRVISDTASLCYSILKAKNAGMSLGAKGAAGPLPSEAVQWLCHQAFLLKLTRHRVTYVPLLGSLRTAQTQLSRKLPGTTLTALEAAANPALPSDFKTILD

SMILES	IC50 [µM]
O=C(N[C@H](Cc1ccccc1)C(=O)NCCCCCCCCCCCCOP(=O)(O)Oc1ccccc1Cl)OCc1ccccc1	> 100
N[C@H](CCC(=O)O)C(=O)N[C@H](Cc1c[nH]c2ccccc12)C(=O)NCCCCCCCCCCCCOP(=O)(O)Oc1ccccc1Cl	> 100
CC(C)(C)OC(=O)N[C@@H](Cc1ccccc1)C(=O)N[C@H](Cc1c[nH]c2ccccc12)C(=O)NCCCCCCCCCCCCOP(=O)(O)Oc1ccccc1Cl	> 100
CC(C)(C)OC(=O)N[C@H](CCC(=O)O)C(=O)N[C@H](Cc1c[nH]c2ccccc12)C(=O)NCCCCCCCCCCCCOP(=O)(O)Oc1ccccc1Cl	> 100
O=C(N[C@H](Cc1c[nH]c2ccccc12)C(=O)NCCCCCCCCCCCCOP(=O)(O)Oc1ccccc1Cl)[C@H]1CCCN1	> 100
N[C@H](Cc1cc2ccccc2[nH]1)C(=O)N[C@H](Cc1c[nH]c2ccccc12)C(=O)NCCCC(=O)NCC(=O)NCCCCCCOP(=O)(O)Oc1ccccc1Cl	> 100
CC(C)(C)OC(=O)N[C@@H](Cc1cc2ccccc2[nH]1)C(=O)N[C@@H](Cc1c[nH]c2ccccc12)C(=O)NCCCC(=O)NCC(=O)NCCCCCCOP(=O)(O)Oc1ccccc1Cl	> 100
CC(C)(C)OC(=O)N[C@H](Cc1cc2ccccc2[nH]1)C(=O)N[C@@H](Cc1c[nH]c2ccccc12)C(=O)NCCCC(=O)NCC(=O)NCCCCCCOP(=O)(O)Oc1ccccc1Cl (mixture of isomers)	> 100
CC(C)(C)OC(=O)N[C@H](Cc1cc2ccccc2[nH]1)C(=O)N[C@H](Cc1c[nH]c2ccccc12)C(=O)NCCCC(=O)NCC(=O)NCCCCCCOP(=O)(O)Oc1ccccc1Cl	> 100
N[C@@H](Cc1cc2ccccc2[nH]1)C(=O)N[C@@H](Cc1c[nH]c2ccccc12)C(=O)NCCCC(=O)NCC(=O)NCCCCCCOP(=O)(O)Oc1ccccc1Cl	> 100
CC(C)(C)OC(=O)N[C@@H](Cc1cc2ccccc2[nH]1)C(=O)N[C@H](Cc1c[nH]c2ccccc12)C(=O)NCCCCCCCCCCCCOP(=O)(O)Oc1ccccc1Cl (mixture of isomers)	> 100
N[C@H](Cc1c[nH]c2ccccc12)C(=O)NCCCCCCOP(=O)(O)Oc1ccccc1Cl	> 100
N[C@@H](Cc1cc2ccccc2[nH]1)C(=O)N[C@H](Cc1c[nH]c2ccccc12)C(=O)NCCCC(=O)NCC(=O)NCCCCCCOP(=O)(O)Oc1ccccc1Cl	> 100
Cc1cn(CCCn2cc(CC(=O)NCCOCCOCCOCCOP(=O)(O)Oc3ccccc3Cl)c3ccccc32)c2ccccc12	> 100
CC(C)(C)OC(=O)N[C@H](Cc1c[nH]c2ccccc12)C(=O)NCCCCCCOP(=O)(O)Oc1ccccc1Cl	> 100
N[C@@H](Cc1ccccc1)C(=O)N[C@H](Cc1c[nH]c2ccccc12)C(=O)NCCCCCCCCCCCCOP(=O)(O)Oc1ccccc1Cl (mixture of isomers)	> 100
CC(=O)N[C@H](Cc1c[nH]c2ccccc12)C(=O)NCCCCCCCCCCCCOP(=O)(O)Oc1ccccc1Cl	90.7
CC(C)(C)OC(=O)N[C@H](Cc1cc2ccccc2[nH]1)C(=O)N[C@@H](Cc1c[nH]c2ccccc12)C(=O)NCCCCCCCCCCCCOP(=O)(O)Oc1ccccc1Cl (racemic)	> 100
CC(=O)N[C@H](Cc1cc2ccccc2[nH]1)C(=O)N[C@H](Cc1c[nH]c2ccccc12)C(=O)NCCCCCCCCCCCCOP(=O)(O)Oc1ccccc1Cl	22.9

Further lines, results first:

IC50 [µM]	SMILES
> 100	Cc1cn(CCCn2cc(CC(=O)NCCCC(=O)NCC(=O)NCCCCCCOP(=O)(O)Oc3ccccc3Cl)c3ccccc32)c2ccccc12
> 100	CC(C)(C)OC(=O)N[C@@H](Cc1cc2ccccc2[nH]1)C(=O)N[C@H](Cc1c[nH]c2ccccc12)C(=O)NCCCC(=O)NCC(=O)NCCCCCCOP(=O)(O)Oc1ccccc1Cl
> 100	N[C@H](Cc1cc2ccccc2[nH]1)C(=O)N[C@@H](Cc1c[nH]c2ccccc12)C(=O)NCCCC(=O)NCC(=O)NCCCCCCOP(=O)(O)Oc1ccccc1Cl (racemic)
10.6	N[C@H](Cc1cc2ccccc2[nH]1)C(=O)N[C@@H](Cc1c[nH]c2ccccc12)C(=O)NCCCCCCCCCCCCOP(=O)(O)Oc1ccccc1Cl (mixture of isomers)
6.8	CC(C)(C)OC(=O)N[C@H](Cc1ccccc1)C(=O)N[C@H](Cc1c[nH]c2ccccc12)C(=O)NCCCCCCCCCCCCOP(=O)(O)Oc1ccccc1Cl
33.9	O=C(Cc1c[nH]c2ccccc12)NCCCCCCCCCCCCOP(=O)(O)Oc1ccccc1Cl
3.6	Cc1cn(CCCn2cc(CC(=O)NCCCCCCCCCCCCOP(=O)(O)Oc3ccccc3Cl)c3ccccc32)c2ccccc12
0.3	CC(C)(C)OC(=O)N[C@@H](Cc1cc2ccccc2[nH]1)C(=O)N[C@@H](Cc1c[nH]c2ccccc12)C(=O)NCCCCCCCCCCCCOP(=O)(O)Oc1ccccc1Cl
12.1	O=C(CNC(=O)OCc1ccccc1)N[C@H](Cc1c[nH]c2ccccc12)C(=O)NCCCCCCCCCCCCOP(=O)(O)Oc1ccccc1Cl
45.2	N[C@H](Cc1c[nH]c2ccccc12)C(=O)NCCCCCCCCCCCCOP(=O)(O)Oc1ccccc1Cl
29.4	Cc1cn(CCCn2cc(CC(=O)NCCCCCCOP(=O)(O)Oc3ccccc3Cl)c3ccccc32)c2ccccc12
3.6	O=C(N[C@H](Cc1c[nH]c2ccccc12)C(=O)NCCCCCCCCCCCCOP(=O)(O)Oc1ccccc1Cl)OCc1ccccc1
15.1	N[C@@H](Cc1c[nH]c2ccccc12)C(=O)NCCCCCCCCCCCCOP(=O)(O)Oc1ccccc1Cl
22.1	N[C@H](Cc1ccccc1)C(=O)N[C@H](Cc1c[nH]c2ccccc12)C(=O)NCCCCCCCCCCCCOP(=O)(O)Oc1ccccc1Cl
7.3	O=C(N[C@H](Cc1c[nH]c2ccccc12)C(=O)NCCCCCCCCCCCCOP(=O)(O)Oc1ccccc1Cl)c1ccccc1
6.4	CC(C)(C)OC(=O)N[C@H](CCC(=O)OCc1ccccc1)C(=O)N[C@H](Cc1c[nH]c2ccccc12)C(=O)NCCCCCCCCCCCCOP(=O)(O)Oc1ccccc1Cl
46.9	Cc1cn(CCCn2cc(CC(=O)NCCCC(=O)N3CCCC3C(=O)NCCCCCCOP(=O)(O)Oc3ccccc3Cl)c3ccccc32)c2ccccc12 (stereo not drawn)
20.7	CC(C)(C)OC(=O)N[C@@H](Cc1c[nH]c2ccccc12)C(=O)NCCCCCCCCCCCCOP(=O)(O)Oc1ccccc1Cl
9.5	CC(C)(C)OC(=O)N1CCC[C@@H]1C(=O)N[C@H](Cc1c[nH]c2ccccc12)C(=O)NCCCCCCCCCCCCOP(=O)(O)Oc1ccccc1Cl
11.1	N[C@@H](Cc1cc2ccccc2[nH]1)C(=O)N[C@@H](Cc1c[nH]c2ccccc12)C(=O)NCCCCCCCCCCCCOP(=O)(O)Oc1ccccc1Cl
18.9	CC(C)(C)OC(=O)N[C@H](Cc1cc2ccccc2[nH]1)C(=O)N[C@H](Cc1c[nH]c2ccccc12)C(=O)NCCCCCCCCCCCCOP(=O)(O)Oc1ccccc1Cl
18.3	CC(C)(C)OC(=O)N[C@H](Cc1c[nH]c2ccccc12)C(=O)NCCCCCCCCCCCCOP(=O)(O)Oc1ccccc1Cl
29.7	O=C(CCCc1c[nH]c2ccccc12)NCCCCCCCCCCCCOP(=O)(O)Oc1ccccc1Cl
13.7	N[C@H](Cc1cc2ccccc2[nH]1)C(=O)N[C@H](Cc1c[nH]c2ccccc12)C(=O)NCCCCCCCCCCCCOP(=O)(O)Oc1ccccc1Cl
